Source: US12213988B2 (ASTRAZENECA AB, priority 2020, dated 2025)
Read-outs that look alike come from different tables or passages of the source.

Legend:
[1] = test system: patients with heart failure with reduced ejection fraction
[2] = test system: patients with chronic kidney disease (CKD)
Method: The study population chosen for this study included a broad population of patients with impaired kidney function. The target population had CKD (defined as eGFR ≥25 and ≤75 mL/min/1.73 m^2) with albuminuria (defined as urine albumin creatinine ratio [UACR]≥200 and ≤5000 mg/g) with or without type 2 diabetes (T2D).
Patients included in the study satisfied the following criteria: • Female or male aged ≥18 years at the time of consent. • eGFR ≥25 and ≤75 mL/min/1.73 m^2 (CKD-EPI Formula) at visit 1. • Evidence of increased albuminuria 3 months or more before visit 1 and UACR ≥200 and ≤5000 mg/g at visit 1. • Stable, and for the patient maximum tolerated labelled daily dose, treatment with ACE-I or ARB for at least 4 weeks before visit 1, if not medically contraindicated.
The primary outcome measure was based on the requirements as outlined in the European Medicines Agency (EMA)'s draft guideline, which states that a composite endpoint of ≥50% sustained decline in eGFR, end stage renal disease (ESRD), and renal death (death due to ESRD when dialysis is not given) are acceptable outcome measures (EMA 2016). This endpoint has also been used in a number of previous outcome studies.
The primary variable was the time to first event included in the primary composite endpoint. The primary analysis was based on the intention to treat (ITT) principle using the FAS.

[3] = test system: patients with CKD and prediabetes
[4] = test system: patients with chronic kidney disease (CKD); remark: listed apart in the source
[5] = dapa group, DAPA-HF non-T2D patients
[6] = vs placebo or standard of care CKD agent alone, in words
[7] = vs placebo or standard of care CKD agent alone, in words, listed as Dapagliflozin
[8] = dapagliflozin 10 mg once daily, CKD and prediabetes, median follow-up of 2.4 years
[9] = Dapa 10 mg (N = 2149), on-treatment period per Table 2 footnote
[10] = No diabetes, Dapa 10 mg (N = 696), on- and off-treatment periods
[11] = patients with T2DM, Dapa 10 mg (N = 1453), on- and off-treatment periods

CCOc1ccc(Cc2cc([C@@H]3O[C@H](CO)[C@@H](O)[C@H](O)[C@H]3O)ccc2Cl)cc1 [dapagliflozin]
new-onset diabetes [1, 5]: 4.9% | new-onset diabetes (patients/group) [1, 5]: 64/1298 | HR, new-onset diabetes ([1]; dapa vs placebo, 95% CI, 0.50-0.94, p=0.019, Cox): 0.68 | reduction of new-onset diabetes ([1]; dapa vs placebo, DAPA-HF non-T2D patients): 32% | hazard ratio, primary end point (≥50% sustained decline in eGFR, ESRD, and CV or renal death) ([2]; dapagliflozin vs placebo, 95% CI 0.51 to 0.72, P<0.0001): 0.61 | effect on death from any cause [2, 6]: superior | effect on renal-only secondary endpoint (composite of ≥50% sustained decline in eGFR, ESRD & renal death; renal composite without CV death) [2, 6]: superior | effect on secondary endpoint composite of CV death and hospitalisation for HF [2, 6]: superior | effect on time to first, second, or third hospitalisation for HF (exploratory endpoints) [2, 6]: superior | effect on death from any cause [2, 7]: superior to placebo | effect on renal-only secondary endpoint (composite of ≥50% sustained decline in eGFR, ESRD & renal death; renal composite without CV death) [2, 7]: significant treatment effect | effect on secondary endpoint composite of CV death and hospitalisation for HF [2, 7]: Statistically significant reduction | effect on composite of ≥50% sustained eGFR decline, ESRD, and renal or CV death (primary objective) ([2]; vs placebo, in words): clinically meaningful and statistically significant reduction | T2D developed in [3, 8]: 3.0% | T2D developed in (patients/group) [3, 8]: 21/697 | event rate of newly diagnosed T2D ([3]; dapagliflozin 10 mg once daily, median follow-up of 2.4 years): 1.5 /100-patient years | reduction in T2D incidence ([3]; dapagliflozin vs placebo): 38% | SAE: Infections and infestations ([4]; Dapa 10 mg (N = 2149), on-treatment period): 171 (8.0) Number (%) of subjects | Any AE with outcome = death [4, 9]: 106 (4.9) Number (%) of subjects | Any SAE (including events with outcome = death) [4, 9]: 633 (29.5) Number (%) of subjects | Any AE with outcome = death [4, 10]: 17 (2.4) Number (%) of subjects | Any SAE (including events with outcome = death) [4, 10]: 150 (21.6) Number (%) of subjects | Deaths, SAEs (serious adverse events) and DAEs (discontinuations due to adverse event) ([4]; dapagliflozin group compared with placebo group, in words): fewer | AEs leading to dose reduction ([4]; human, in vivo): few but more common | patients reported SAEs, overall ([4]; human, in vivo): fewer | Any AE with outcome = death [4, 11]: 89 (6.1) Number (%) of subjects | Any SAE (including events with outcome = death) [4, 11]: 483 (33.2) Number (%) of subjects
